From patent publication US20210236523A1, “P[…] FOR HEADACHE DISORDERS” (priority 2020, published 2021)

Assays:
[1] = system: patients with cluster headache; assay: Randomized placebo-controlled study of a 3-dose psilocybin pulse regimen in cluster headache: headache diary; format: in vivo, human; conditions: for effect size for change in weekly cluster attacks: psilocybin vs placebo; for change in the number of weekly cluster attacks / number of weekly cluster attacks: 3-dose pulse 0.143 mg/kg
Source text: In this exploratory study, a patient-informed regimen (a low dose of psilocybin (between 1-2 grams dried P. cubensis taken three times, approximately 5 days apart each)) was studied in patients with cluster headache in a controlled, laboratory setting. The information gained from this study serves to (1) verify longstanding anecdotal reports and (2) design larger, more definitive studies examining the safety and efficacy of psilocybin in cluster headache.
(§1) This study was registered on clinicaltrials.gov (NCT02981173) with approvals from the Human Studies Subcommittee of Veterans Affairs Connecticut Healthcare System (VACHS) and the Human Investigations Committee of Yale University School of Medicine. The study was conducted under an approved Investigational New Drug application (#124,874) with the US Food & Drug Administration, under a Schedule 1 license (author DCD). Psilocybin was provided by author NC from the University of Wisconsin. Weight-based capsules of psilocybin 0.143 mg/kg and matching placebo (microcrystalline cellulose; obtained from Fagron (St. Paul, Minn.)) were compounded into identical blue gel capsules by the VACHS Investigational Research Pharmacy for each subject.
Adults (age 21 to 65 years, inclusive) with cluster headache as defined by the International Classification of Headache Disorders III-beta 8 were eligible to participate in this study. Both chronic and episodic cluster headache subtypes were eligible, however certain conditions were required to ensure proper interpretation of the study intervention. For both chronic and episodic subjects, an attack frequency of approximately 1 attack per day or more was required. For episodic subjects, the typical cluster period was required to last approximately 2 months or more and study participation could only take place when at least 6 weeks of the period was anticipated to remain. Excluded medical conditions included, but were not limited to, uncontrolled hypertension, coronary artery disease, cardiac arrhythmia, cerebrovascular disease, and serious central or peripheral nervous system or spinal disease. Excluded psychiatric conditions included, but were not limited to, psychotic or manic disorders in the subject or a first degree relative and substance abuse within the past 3 months. Any prior serious adverse event with psilocybin, LSD, or related compounds (i.e., mescaline) was also exclusionary. Prior exposure to psilocybin or related compounds through recreational or medicinal use or through participation in other research studies was not excluded, although any use in the past 3 months was prohibited. Alcohol use within one week of the first experimental test day was prohibited. Caffeine and nicotine were not restricted. Subjects were required to be off serotonergic antidepressants (selective serotonin reuptake inhibitors, serotonin and norepinephrine reuptake inhibitors, monoamine oxidase inhibitors, tricyclics) for at least 6 weeks and serotonergic antiemetics (i.e., ondansetron) for at least 2 weeks from the first test day. Vasoconstrictive medications (i.e., sumatriptan, pseudoephedrine) could be used during the study period, but not within 5 half-lives of said medication and not within 5 half-lives of psilocybin (15 hours) after each test day. Triptans were also not allowed more than twice weekly.
Subjects were instructed to maintain a headache diary starting 2 weeks before until 8 weeks after the first experimental session. Subjects documented every cluster attack, including date, onset, offset, pain intensity (0-10 visual analog scale (VAS): 0=none, 1=minimal, 5=moderate, 9=severe, 10=worst imaginable). The abortive treatments taken and their effects were also recorded in the diary. Only the 14 days prior to the first experimental session (baseline) and the 56 days after the first experimental session (inclusive) were counted in the final analysis. […]

[2] = system: patients with migraine headache; assay: Placebo-controlled cross-over study of a single low oral dose of psilocybin in migraine headache: headache diary burden; format: in vivo, human
Source text: The purpose of this exploratory study was to investigate the effects of a single low dose of psilocybin in patients with migraine headache in a controlled experiment. Basic information was gathered to assist in the development of future studies considering the effects and mechanism of action of 5-HT2A receptor compounds in migraine and other headache disorders.
as §1, with “(NCT03341689)” for “(NCT02981173)”, “[microcrystalline” for “(microcrystalline”, “Minn.)]” for “Minn.))”
Adults (age 21 to 65 years, inclusive) free from serious medical or psychiatric disease with migraine headache as defined by the International Classification of Headache Disorders III-beta and with a frequency of migraine attacks of 2 per week or more were eligible to participate in this study. Among the excluded medical conditions were uncontrolled hypertension, coronary artery disease, cardiac arrhythmia, cerebrovascular disease, and serious central or peripheral nervous system or spinal disease (e.g., multiple sclerosis, amyotrophic lateral sclerosis). Psychotic or manic disorders in the subject or a first degree relative was also excluded, as were substance abuse within the past 3 months and any prior serious adverse event with psilocybin, LSD, or related compounds (i.e., mescaline). Prior exposure to psilocybin or related compounds through recreational or medicinal use or through participation in other research studies was not excluded, although any use in the past 3 months was prohibited. Alcohol use within one week of the first experimental test day was prohibited. Caffeine and nicotine were not restricted. Subjects were required to be free from serotonergic antidepressants (selective serotonin reuptake inhibitors, serotonin and norepinephrine reuptake inhibitors, monoamine oxidase inhibitors, tricyclics) for at least 6 weeks, serotonergic antiemetics (i.e., ondansetron) for at least 2 weeks, and vasoconstrictive medications (i.e., pseudoephedrine) for at least 5 half-lives of said medication. Triptans were permitted, but no more than twice weekly and not within 5 half-lives of said triptan before each test day and not within 5 half-lives of psilocybin (15 hours) after each test day.
Subjects were instructed to maintain a headache diary starting two weeks before the first experimental session until two weeks after the second experimental session. Subjects documented every headache attack, migraine (with associated migrainous symptoms) or otherwise (without associated migrainous symptoms; not counted as a migraine attack). Associated symptoms—photophobia (light sensitivity), phonophobia (sound sensitivity), nausea/vomiting—as well as attack-related functional impairment were documented using a 0-3 visual analog scale (VAS): 0=none, 1=mild, 2-moderate, 3=severe. The abortive medications taken and their effects were also recorded in the diary. Only the 14 days prior to the first experimental session (baseline) and the 14 days after each experimental session (inclusive) were counted in the final analysis.
Subjects completed two experimental sessions, separated by at least 14 days, which were conducted in the Neurobiological Studies Unit (NSU) at VACHS. Subjects reported to the NSU at 08:00; urine drug, urine pregnancy (when applicable), and alcohol breathalyzer tests were required to be negative in order to proceed. […]

[3] = of 10 subjects, 14 days after single oral dose 0.143 mg/kg
[4] = single oral dose 0.143 mg/kg, two weeks after dosing

SMILES: CN(C)CCc1c[nH]c2cccc(OP(=O)(O)O)c12 [psilocybin, 3-(2-dimethylaminoethyl)-1H-indol-4-yl] dihydrogen phosphate]
- effect size for change in weekly cluster attacks ([1]; chronic cluster headache subjects, 8 weeks): −1.20
- change in the number of weekly cluster attacks ([1]; chronic cluster headache subjects, across 8 weeks, P=0.080 vs placebo): −6.08 (2.29)
- number of weekly cluster attacks ([1]; chronic cluster headache subjects, across 8 weeks, group baseline 8.67 (2.42)): 4.58 (0.77)
- change in the number of weekly cluster attacks ([1]; over the first 3 weeks, episodic and chronic combined, P=0.017 vs placebo): −6.03 (2.23)
- number of weekly cluster attacks ([1]; over the first 3 weeks, episodic and chronic patients combined, group baseline 9.30 (1.49)): 3.50 (1.12)
- effect size for change in weekly cluster attacks ([1]; three weeks): −1.89
- change from baseline in attack-related functional impairment ([2]; 0-3 VAS, single oral dose 0.143 mg/kg, mean (SEM), P=0.0235 vs placebo): −0.96 (0.26)
- subjects with no migraine attacks after administration [2, 3]: 2 subjects
- subjects with only one migraine attack after administration [2, 3]: 2 subjects
- change in weekly migraine days (WMD) from baseline ([2]; single oral dose 0.143 mg/kg, 14 days after dosing, mean (SEM), 10 subjects, P=0.0027 vs placebo): −1.65 (0.39) days/week
- time to the second migraine attack after drug administration ([2]; single oral dose 0.143 mg/kg, mean (SEM), 15 days used when no attack, P=0.0119 vs placebo): 10.30 (1.61) days
- time to the first migraine attack after drug administration ([2]; single oral dose 0.143 mg/kg, mean (SEM), 15 days used when no attack, P=0.0554 vs placebo): 6.30 (1.88) days
- change from baseline in weekly migraine attacks (WMA) ([2]; single oral dose 0.143 mg/kg, mean (SEM), P=0.0039 vs placebo): −1.40 (0.36) attacks/week
- change from baseline in pain severity ([2]; single oral dose 0.143 mg/kg, mean (SEM), P=0.0109 vs placebo): −0.70 (0.16)
- change from baseline in weekly migraine abortive use ([2]; single oral dose 0.143 mg/kg, mean (SEM), P=0.0140 vs placebo): −0.65 (0.21) abortives/week
- percentage of subjects who had 25% reduction in WMD [2, 4]: 80%
- percentage of subjects who had 50% reduction in WMD [2, 4]: 50%
- percentage of subjects who had 75% reduction in WMD [2, 4]: 30%
